In the NIST ThermoML archive (doi:10.1016/j.jct.2016.05.007):
Values joined by “and” are separate entries in the source; they are usually repeats but may differ in a detail not shown here. Identical values can stand only once. Numbers after ± are expanded uncertainties.

Assays:
[1] = Molar enthalpy of transition or fusion; settings: DSC
[2] = molar enthalpy of vaporization or sublimation; settings: 298.15 K; Crystal 2; Static calorimetry
[3] = for Triple point temperature: DSC

Structure (SMILES): CC(C)(C)c1ccc2c(c1)Cc1cc(C(C)(C)C)ccc1-2 [2,7-di-tert-butylfluorene]
- Molar enthalpy of transition or fusion ([1]; Crystal 1): 3.73 ± 0.0956 kcal/mol
- Molar enthalpy of transition or fusion ([1]; Crystal 2): 2.39 ± 0.0645 kcal/mol
- molar enthalpy [2]: 28.66 ± 0.239 kcal/mol
- vapor or sublimation pressure ([3]; 349.14 K, Crystal 2, Calculated from knudsen effusion weight loss): 0.000106 ± 2e-05 kPa and 0.000105 ± 2e-05 kPa
- vapor or sublimation pressure ([3]; 351.14 K, Crystal 2, Calculated from knudsen effusion weight loss): 0.000136 ± 2.1e-05 kPa and 0.000135 ± 2.1e-05 kPa and 0.000132 ± 2.1e-05 kPa
- vapor or sublimation pressure ([3]; 353.3 K, Crystal 2, Calculated from knudsen effusion weight loss): 0.000169 ± 2.1e-05 kPa and 0.000171 ± 2.1e-05 kPa
- vapor or sublimation pressure ([3]; 355.28 K, Crystal 2, Calculated from knudsen effusion weight loss): 0.000213 ± 2.1e-05 kPa and 0.000215 ± 2.1e-05 kPa and 0.000217 ± 2.1e-05 kPa
- vapor or sublimation pressure ([3]; 357.2 K, Crystal 2, Calculated from knudsen effusion weight loss): 0.000271 ± 2.2e-05 kPa and 0.000267 ± 2.2e-05 kPa and 0.000261 ± 2.2e-05 kPa
- vapor or sublimation pressure ([3]; 359.19 K, Crystal 2, Calculated from knudsen effusion weight loss): 0.000321 ± 2.3e-05 kPa and 0.000336 ± 2.3e-05 kPa and 0.00033 ± 2.3e-05 kPa
- vapor or sublimation pressure ([3]; 361.14 K, Crystal 2, Calculated from knudsen effusion weight loss): 0.000408 ± 2.5e-05 kPa and 0.000409 ± 2.5e-05 kPa
- vapor or sublimation pressure ([3]; 363.27 K, Crystal 2, Calculated from knudsen effusion weight loss): 0.000509 ± 2.7e-05 kPa and 0.000507 ± 2.7e-05 kPa and 0.000514 ± 2.7e-05 kPa
- vapor or sublimation pressure ([3]; 368.2 K, Crystal 1, Calculated from knudsen effusion weight loss): 0.000805 ± 3.5e-05 kPa and 0.000816 ± 3.5e-05 kPa and 0.000828 ± 3.5e-05 kPa
- vapor or sublimation pressure ([3]; 368.55 K, Crystal 1, Closed cell (Static) method): 0.000873 ± 2.4e-05 kPa
- vapor or sublimation pressure ([3]; 369.13 K, Crystal 1, Calculated from knudsen effusion weight loss): 0.000886 ± 3.7e-05 kPa and 0.000888 ± 3.7e-05 kPa and 0.000889 ± 3.7e-05 kPa
- vapor or sublimation pressure ([3]; 370.26 K, Crystal 1, Calculated from knudsen effusion weight loss): 0.000975 ± 4e-05 kPa and 0.000979 ± 4e-05 kPa
- vapor or sublimation pressure ([3]; 370.54 K, Crystal 1, Closed cell (Static) method): 0.001055 ± 2.5e-05 kPa
- vapor or sublimation pressure ([3]; 371.21 K, Crystal 1, Calculated from knudsen effusion weight loss): 0.001079 ± 8.5e-05 kPa and 0.001082 ± 8.5e-05 kPa and 0.00107 ± 8.4e-05 kPa
- vapor or sublimation pressure ([3]; 372.21 K, Crystal 1, Calculated from knudsen effusion weight loss): 0.00118 ± 9.5e-05 kPa and 0.001178 ± 9.5e-05 kPa
- vapor or sublimation pressure ([3]; 372.5 K, Crystal 1, Closed cell (Static) method): 0.001246 ± 2.6e-05 kPa
- vapor or sublimation pressure ([3]; 374.5 K, Crystal 1, Closed cell (Static) method): 0.001492 ± 2.7e-05 kPa
- vapor or sublimation pressure ([3]; 376.45 K, Crystal 1, Closed cell (Static) method): 0.001778 ± 2.9e-05 kPa
- vapor or sublimation pressure ([3]; 378.41 K, Crystal 1, Closed cell (Static) method): 0.002106 ± 3.1e-05 kPa
- vapor or sublimation pressure ([3]; 380.4 K, Crystal 1, Closed cell (Static) method): 0.002524 ± 3.3e-05 kPa
- vapor or sublimation pressure ([3]; 382.38 K, Crystal 1, Closed cell (Static) method): 0.002965 ± 3.5e-05 kPa
- vapor or sublimation pressure ([3]; 384.34 K, Closed cell (Static) method, Liquid): 0.003946 ± 4e-05 kPa
- vapor or sublimation pressure ([3]; 384.34 K, Crystal 1, Closed cell (Static) method): 0.003492 ± 3.7e-05 kPa
- vapor or sublimation pressure ([3]; 386.3 K, Crystal 1, Closed cell (Static) method): 0.004126 ± 4.1e-05 kPa
- vapor or sublimation pressure ([3]; 386.32 K, Closed cell (Static) method, Liquid): 0.004548 ± 4.3e-05 kPa
- vapor or sublimation pressure ([3]; 388.27 K, Crystal 1, Closed cell (Static) method): 0.004862 ± 4.4e-05 kPa
- vapor or sublimation pressure ([3]; 388.28 K, Closed cell (Static) method, Liquid): 0.005217 ± 4.6e-05 kPa
- vapor or sublimation pressure ([3]; 390.24 K, Crystal 1, Closed cell (Static) method): 0.00567 ± 4.8e-05 kPa
- vapor or sublimation pressure ([3]; 390.28 K, Closed cell (Static) method, Liquid): 0.005976 ± 5e-05 kPa
- vapor or sublimation pressure ([3]; 392.22 K, Closed cell (Static) method, Liquid): 0.006859 ± 5.4e-05 kPa
- vapor or sublimation pressure ([3]; 394.2 K, Closed cell (Static) method, Liquid): 0.007843 ± 5.9e-05 kPa
- vapor or sublimation pressure ([3]; 396.17 K, Closed cell (Static) method, Liquid): 0.008987 ± 6.5e-05 kPa
- vapor or sublimation pressure ([3]; 398.15 K, Closed cell (Static) method, Liquid): 0.01026 ± 7.1e-05 kPa
- vapor or sublimation pressure ([3]; 400.05 K, Closed cell (Static) method, Liquid): 0.01164 ± 7.8e-05 kPa
- vapor or sublimation pressure ([3]; 402.07 K, Closed cell (Static) method, Liquid): 0.01327 ± 8.6e-05 kPa
- vapor or sublimation pressure ([3]; 404.04 K, Closed cell (Static) method, Liquid): 0.01508 ± 9.5e-05 kPa
- Triple point temperature ([3]; Crystal 1): 395.9 ± 0.8 K
- Triple point temperature ([3]; Crystal 2): 367 ± 0.8 K
